Measured values: patent US8592419B2, “Ceramides and apoptosis-signaling ligand” (MUSC Foundation for Research Development, priority 2004, dated 2013)
One block for each compound: values may come before it. Where a SMILES comes first, the peptide text is derived from it. [ ]: non-standard residue; d: D form. The star is where a group is joined. Sta = CC(C)C[C@H](N)[C@@H](O)CC(=O)O; Isovaleryl = CC(C)CC(=O)*; Cbz = O=C(OCc1ccccc1)*; CH2F = FC*

Tests used:
[1] = test system: lysosomes of DU145 cells; experiment: Lysosomal stability assay (LysoTracker Red); type: cell-based, human; conditions: DU145 cells, 1 hour; LCL204 10 μM, C6-ceramide 30 μM, B13 20 μM
Experimental: Lysosoinal stability assay. Lysosomal stability was measured using the fluorescent dye LysoTracker Red (LTR). Cells were seeded overnight in 60 mm plates. The next day, medium was removed and replaced with medium containing 200 nM LTR. Cells were loaded with LTR for 30 minutes at 37° C. LTR was removed and cells were washed once with PBS, then medium containing the treatment was added for the indicated time. After treatment, cells were lifted with trypsin, washed once in PBS, and resuspended in 0.5 mL growth medium. LTR fluorescence was measured using FACS analysis (564-606 nm) as above. A decrease in fluorescence intensity corresponded to an increase in lysosomal pH, and a minimum of 10,000 events were scored for each sample.

[2] = target: T1, acid ceramidase (AC) (Homo sapiens, UniProt Q13510); experiment: Immunoblot of acid ceramidase protein; type: cell-based; conditions: DU145 cells, one hour pretreatment, then LCL204 10 μM 6 hours
T1 construct: endogenous in cells
T1 sequence (Q13510 22-395): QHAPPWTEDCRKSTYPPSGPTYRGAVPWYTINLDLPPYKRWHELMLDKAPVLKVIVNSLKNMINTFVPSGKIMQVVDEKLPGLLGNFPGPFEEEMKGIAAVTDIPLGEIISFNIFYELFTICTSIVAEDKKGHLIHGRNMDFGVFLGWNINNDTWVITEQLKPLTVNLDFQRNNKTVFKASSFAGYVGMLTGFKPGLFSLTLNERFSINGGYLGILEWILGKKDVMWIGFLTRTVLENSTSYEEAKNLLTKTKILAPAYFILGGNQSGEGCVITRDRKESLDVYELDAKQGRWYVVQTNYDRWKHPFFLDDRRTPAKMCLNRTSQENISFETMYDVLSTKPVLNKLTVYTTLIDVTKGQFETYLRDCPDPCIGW
Experimental: (§1) Immunoblot analysis. Cells were seeded in 60mm plates as described above and treated accordingly. Cells were lifted by gently scraping the plates, washed once with ice cold PBS and then lysed in lysis buffer (PBS, 1% Triton X-100, 10% glycerol) containing protease inhibitors pepstatin A (0.5 μg/ml), leupeptin (0.5 μg/ml), aprotinin (5 μg/ml), and PMSF (100 μg/ml) for 10 minutes on ice. Insoluble material was removed by centrifugation at 14,000 rpm for 15 minutes at 4° C. The supernatants were then supplemented with SDS at a final concentration of 2% and stored at −80° C. Protein concentrations were determined using the DC Protein Assay (BioRad Laboratories; Hercules, CA, USA) according to the manufacturer's instructions. 50 μg of protein per sample (unless otherwise indicated) were separated on NuPAGE 4-12% Bis-Tris gels (Invitrogen; Carlsbad, CA, USA) and transferred to nitrocellulose membranes (BioRad). Following transfer, membranes were blocked for 1 hour at room temperature in Tris-buffered saline (TBS) containing 0.1% Tween-20 and 5% nonfat dry milk and incubated overnight at 4° C. with primary antibody at a dilution of 1:2,000(actin), 1:1,000(cytochrome c, COX IV, Bax, Bak, p53, p38, P-p38), 1:500(P-JNK, JNK), 1:250 (AC, p73), or 1:400(LAMP-1, cathepsin B). Overnight incubations were performed in 5% milk in TBS-Tween. Following overnight incubation, membranes were washed three times for 10 minutes each in TBS-Tween and incubated for 1 hour at room temperature with secondary antibody in 5% milk TBS-Tween at a dilution 1:5,000 (goat anti-mouse IgG) or 1:50,000 (goat anti-rabbit). Membranes were then washed three times more and incubated for 5 minutes at room temperature with Super Signal HRP substrate (Pierce Biotechnology Inc.; Rockford, IL, USA).

[3] = target: T2, ASMase (Homo sapiens, UniProt P17405); experiment: Acid sphingomyelinase activity assay; type: cell-based; conditions: DU145 cells, 2-hour LCL204 treatment
T2 construct: DU145 cells were lysed in 50 mM Tris (pH=7.4) using a probe sonicator; endogenous in cells; host or cells: DU145 (lysate of treated cells)
T2 sequence (P17405 47-631): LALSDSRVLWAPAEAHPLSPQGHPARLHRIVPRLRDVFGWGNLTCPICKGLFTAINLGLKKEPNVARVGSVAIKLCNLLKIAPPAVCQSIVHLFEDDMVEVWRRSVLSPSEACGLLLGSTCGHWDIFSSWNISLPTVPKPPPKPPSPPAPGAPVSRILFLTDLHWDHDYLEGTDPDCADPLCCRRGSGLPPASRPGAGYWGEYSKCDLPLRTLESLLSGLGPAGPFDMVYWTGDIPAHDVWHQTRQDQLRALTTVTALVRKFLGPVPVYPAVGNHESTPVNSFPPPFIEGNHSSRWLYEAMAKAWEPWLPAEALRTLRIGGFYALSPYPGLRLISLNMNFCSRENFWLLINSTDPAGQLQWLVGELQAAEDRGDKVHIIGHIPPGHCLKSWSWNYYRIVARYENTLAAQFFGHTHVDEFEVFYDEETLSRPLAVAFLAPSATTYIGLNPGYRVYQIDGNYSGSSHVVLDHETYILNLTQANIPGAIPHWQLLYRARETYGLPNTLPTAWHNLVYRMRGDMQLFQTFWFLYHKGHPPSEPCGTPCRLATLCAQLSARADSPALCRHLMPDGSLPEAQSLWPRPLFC
Experimental: Acid Sphingomyelinase Activity Assay. DU145 cells were lysed in 50 mM Tris (pH=7.4) using a probe sonicator. Cellular debris was removed after centrifugation at 3000×g for 10 minutes. Proteins (50 μg) were adjusted to a total volume of 100 μl and the reaction was started by adding 100 μl of the reaction mixture containing 1 mM EDTA, 250 mM sodium acetate (pH 5.0), 100 μM [choline-methyl-^14C] sphingomyelin and 0.1% Triton X. After incubation at 37° C. for one hour, the reaction was stopped by adding 1.5 ml of chloroform/methanol (2:1) and then 200 μl of water. Phases were separated by centrifugation at 2000×g for 5 minutes. Quantitation of the amount of released radioactive phosphocholine was determined by subjecting 400 μl of the upper phase to scintillation counting.

[4] = test system: L929 cells; experiment: TNFα-induced PGE2 release; type: cell-based; conditions: TNFα-treated L929 mouse fibroblast cells, preliminary data
Description: Interleukin-1 is a major inducer of inflammation and TNF is an important regulator of the reaction. Both cytokines can activate ceramidase, and thus inhibiting the activity of ceramidase can result in an anti-inflammatory effect. This may involve the prevention of the formation of sphingosine and sphingosine phosphate which have pro-inflammatory effects. Also, inhibition of ceramidase may prevent the hyperproliferation of immune cells that are important for inflammation. […] The release of PGE2 is also shown to be inhibited by D-(N-myristolyamino)-1-phenyl-1-propanol), D-MAPP, which is an inhibitor of one of the ceramidase. This observation may be important for inhibiting inflammatory reactions that occur in conditions, such as but not limited to rheumatoid arthritis. Thus, it is possible to treat or prevent inflammation by regulating the level of cellular ceramide using the method of the invention. As discussed above, ceramide level can be increased by administering compounds of the present invention that can inhibit mitochondrial ceramidase.

[5] = test system: DU145 cells; experiment: Effect of doxorubicin on apoptotic resistance of DU145 cells; type: cell-based, human; conditions: 0.2 μg/ml
Description: The viruses described in Rubinchik et al. had been used under in vivo conditions to treat prostate cancer xenografts. […]. […] One of the limitations in PCa gene therapy is delivery of the therapeutic gene to every cell in the tumor. One way to overcome this is to amplify the response to the delivered gene by taking advantage of the bystander effect. For example, virally-expressed wild-type p53 is capable of inducing apoptosis in many types of cancer cells and is reported to have bystander activity by inducing localized FasL expression which recruits neutrophils infiltration that is believed to play a critical role in the bystander mechanism. In practice, the bystander effect, if activated , will result in regression of a solid tumor in spite of the physician's inability to deliver, by virus or liposome, a therapeutic gene to every cell. […] In the DU145 model of prostate cancer, the inventors determined that resistance to the induction of apoptosis through the Fas receptor signaling pathway is due to overexpression of apoptotic resistance genes including cFLIPs (Hyer et al., Cancer Biology and Therapy 1(4): 405-410, 2002). […] However, expression of apoptotic resistance genes in some cancers, including in the DU145 model, make the cells relatively insensitive to vesicle-mediated bystander activity. To overcome this, a number of different chemotherapeutic drugs and other small molecules were examined for their effect on apoptotic resistance mechanisms. […] This decrease in protein levels may be due to proteasomal degradation or a translational block. Under these conditions, a 20% increase in sensitivity of apoptotic vesicles is observed with 0.2 μg/ml doxorubicin. […]

[6] = test system: DU145 cells; experiment: Cell death by MTS assay, ceramide analog combined with AdGFPFasL virus; type: cell-based, human
Experimental: LCL102, a ceramidase inhibitor, which acts to increasing intracellular ceramide levels by […], were tested in this system. This molecule was highly efficient at activating cell death in DU145 cells at nontoxic doses if combined with AdGFPFasL virus at MOIs achievable in vivo. DU145 cells growing in 96 well plates at 1×10^4 cells/well are treated with either media alone or LCL102 at 2 uM for 48 hours followed by AdGFPFasL for 24 hours at the MOI (5-80). Cell death is assayed by the MTS assay. At 2 uM LCL102 and 5MOI of virus, cell death is amplified 4-fold compared to LCL102 alone (FIG. 14).

[7] = test system: DU145 cells; experiment: MTS cell viability assay in DU145 cells; type: cell-based, human; conditions: for reproduction of the apoptotic consequences of LCL204-induced lysosomal rupture: agents that strictly alter lysosomal pH
Experimental: MTS cytotoxicity assays for LCL204 treatments. Cell viability was determined using the CellTiter 96 AQueous One Solution Cell Proliferation Assay (Promega; Madison, Wis., USA). 1×10^4 cells per well were seeded in 96-well plates overnight. The next day media was removed and replaced with either 100 μl media with vehicle control or media containing LCL204 at desired concentrations. Assays were carried out according to manufacturer's instruction as previously described (60). For experiments using enzyme inhibitors and LCL204, media was removed and replaced with 50 μl media containing vehicle only or indicated inhibitor. Cells were pretreated 1 hour at 37° C. before adding 50 μl media containing vehicle, inhibitor only, LCL204 only (2× concentration), or a combination. The remainder of the assay was carried out as described above.

[8] = test system: PUMA; experiment: Immunoblot of PUMA; type: cell-based, human; conditions: PPC-1/pcDNA3 cells, 40 μM SP600125 with LCL204
Experimental: as §1

Structure (SMILES): CCCCCCCCCCCCCC(=O)N[C@H](CO)[C@H](O)c1ccc([N+](=O)[O-])cc1 [B13, reference compound]
shift in LTR fluorescence (rise in lysosomal pH) [1]: did not have this effect

Structure (SMILES): CCCCCCCCCCCCC/C=C/[C@@H](O)[C@H](CO)NC(=O)CCCCC [C6-ceramide, reference compound]
shift in LTR fluorescence (rise in lysosomal pH) [1]: did not have this effect

effect of protease inhibitor pretreatment on LCL204-induced AC protein loss [2]: blocked AC degradation
effect on LCL204-induced loss of ASMase activity [3]: loss of activity was blocked
Structure (SMILES): CCCNC(=O)[C@H]1O[C@@H]1C(=O)N[C@H](C(=O)N1CCC[C@H]1C(=O)OC)[C@@H](C)CC [CA074Me, reference compound]

Structure (SMILES): CCCCCCCCCCCCCC(=O)NC(C)C(O)c1ccccc1 [D-MAPP]
release of PGE2 [4]: inhibited

Structure (SMILES): COc1cccc2c1C(=O)c1c(O)c3c(c(O)c1C2=O)C[C@@](O)(C(=O)CO)C[C@@H]3O[C@H]1C[C@H](N)[C@H](O)[C@H](C)O1 [Doxorubicin]
cFLIP protein expression [5]: decreases expression of cFLIP protein
increase in sensitivity of apoptotic vesicles [5]: 20%
toxicity to DU145 cells [5]: toxic to DU145 cells at 48-72 hours

Structure (SMILES): CCCCCCCCCCCCCCN[C@H](CO)[C@H](O)c1ccc([N+](=O)[O-])cc1 [LCL102, (1R,2R)-2-N-Tetradecylamino-1-(4-nitro-phenyl)-1,3-propandiol]
amplification of cell death compared to LCL102 alone ([6]; 2 uM for 48 hours, then AdGFPFasL 5MOI for 24 hours): 4 fold
increase of the ability of AdGFPFasL to kill tumor cells ([6]; in vitro, subtoxic doses): as much as ten-fold

Structure (SMILES): CC(C)C[C@@H](C=O)NC(=O)[C@H](CC(C)C)NC(=O)[C@H](CC(C)C)NC(=O)OCc1ccccc1 [MG132] (Cbz-Leu-Leu-Leu-aldehyde)
effect of protease inhibitor pretreatment on LCL204-induced AC protein loss [2]: blocked AC degradation

Structure (SMILES): Cl.N [NH4Cl]
reproduction of the apoptotic consequences of LCL204-induced lysosomal rupture [7]: could not be reproduced

Structure (SMILES): Oc1c2ccccc2c2c3c(cccc13)N=N2 [SP600125, reference compound]
time until which LCL204-induced PUMA induction was delayed [8]: approximately 6 hours

Structure (SMILES): CO/C1=C\C(C)=C\[C@@H](C)[C@@H](O)[C@@H](C)C/C(C)=C/C=C/[C@H](OC)[C@@H]([C@@H](C)[C@@H](O)[C@H](C)[C@@]2(O)C[C@@H](O)[C@H](C)[C@@H](C(C)C)O2)OC1=O [bafilomycin A1]
reproduction of the apoptotic consequences of LCL204-induced lysosomal rupture [7]: could not be reproduced

Structure (SMILES): CC(C)CC(=O)N[C@H](C(=O)N[C@H](C(=O)N[C@@H](CC(C)C)[C@@H](O)CC(=O)N[C@@H](C)C(=O)N[C@@H](CC(C)C)[C@@H](O)CC(=O)O)C(C)C)C(C)C [pepstatin A] (Isovaleryl-VV[Sta]A[Sta]-OH)
effect of protease inhibitor pretreatment on LCL204-induced AC protein loss [2]: no effect

Structure (SMILES): COC(=O)C[C@H](NC(=O)[C@H](C)NC(=O)[C@@H](NC(=O)OCc1ccccc1)C(C)C)C(=O)CF [zVAD-fmk] (Cbz-Val-Ala-Asp(OMe)-CH2F)
LCL204-mediated cell death after pre-treatment with caspase inhibitor ([7]; pre-treated one hour, then LCL204 24 hours, especially below 15 μM LCL204): cell death was substantially reduced
effect of protease inhibitor pretreatment on LCL204-induced AC protein loss [2]: blocked AC degradation
